This is an account of results in patent EP4796125A1, “TREATMENT OF PATIENT WITH NEGATIVE P53 GENE MUTATION, POSITIVE KRAS GENE MUTATION AND POSITIVE BRCA MUTATION” (Ascentawits Pharmaceuticals, Ltd., priority 2023, dated 2025).

Data set [1] deals with H460 cells. The data set is described as follows: Cell cycle G2/M arrest, PI staining and flow cytometry. Format: cell-based. On the procedure:
• 1) H460/HPAF-II cell suspensions were added to a 24-well plate, with a cell density of 100000 cells/well and 995 µL of medium per well. • 2) The cells were cultured overnight in a 37°C, 5% CO2 incubator. • 3) Compound Treatment
24 hours after cell plating, according to the protocol, the experimental groups for each cell line were as follows: Monotherapy: 24 hours after cell plating, 5 µL of test compounds at different concentrations was added: 1% DMSO, 5 µM Nutlin-3, and 0.1 nM AST-3424. The plate was gently shaken to ensure even mixing, and then placed in a 37°C, 5% CO2 incubator.
• Cells were pretreated with AST-3424 for 2 hours, and then co-treatment with Nutlin-3 for 24 hours; • cells were pretreated with Nutlin-3 for 2 hours, and then co-treatment with AS -3424 for 24 hours; and • cells were co-treated with AST-3424 and Nutlin-3 for 24 hours. • 4) The cells were digested, centrifuged at 1000 g at 4°C, washed once with pre-cooled PBS, centrifuged at 1000 g at 4°C, and fixed with 1 mL of pre-cooled 70% ethanol at - 20°C overnight. • 5) The cells were centrifuged at 3000 g at 4°C, washed once with pre-cooled PBS (phosphate buffer), and centrifuged at 3000g at 4°C. PI staining solution was prepared. The cells were stained at 37°Cfor 30 minutes (protected from light), and stored in an ice bath (protected from light). The cells were detected using a flow cytometer on the same day, and the proportions of cells in different cell cycle phases was analyzed using FlowJo.
The remaining operations were similar to those of the above experiment, and the compound treatment was as follows: […]

In the next data set the test system is NCI-H460 cells. Nature of the data set: In vitro proliferation under normoxia conditions (CTG, 72 hours), Example 29. Format: cell-based. Particulars: Homo sapiens, Table 25, normoxia, alone or + 3 µM AST-3021. On the procedure:
(§1) • 1) NCI-H460 and NCI-H460 P53KO # 1 cell suspensions were added to 96-well plate (100 µL per well), with a cell density of 2000 cells/well. • 2) The cells were cultured overnight in a 37°C, 5% CO2 incubator. • 3) Compound Treatment
(§2) Monotherapy: 24 hours after cell plating, each well was supplemented with 99.5 µL of growth medium. Then, 0.5 µL of test compounds at different concentrations was added. The plate was gently shaken to ensure even mixing, and then placed in a 37°C, 5% CO2 incubator.
(§3) Combination therapy: 24 hours after cell plating, each well was supplemented with 99 µL of growth medium. Then, 0.5 µL of the combination compound was added. The plate was gently shaken to ensure even mixing, and then placed in an incubator for 2 hours. Then, 0.5µL of test compounds at different concentrations was added. The plate was gently shaken to ensure even mixing, and then placed in a 37°C, 5% CO2 incubator. • 4) The cell plate was placed in the incubator for 72 hours. • 5) The cell plate to be tested was placed at room temperature and equilibrated for 30 minutes, and 100 µL of medium was discarded from each well. • 6) 25 µL of CTG reagent was added to each well, placed at a fast shaker to shake for 2 minutes, and placed at room temperature for 30 minutes (protected from light). • 7) The chemiluminescence signal value was read using a multifunctional microplate reader with a reading time of 1000 ms. • 8) IC50 (half maximal inhibitory concentration) values were calculated using GraphPad Prism 5 software.

The subject of the next data set is NCI-H460 P53KO #1 cells. Described as above. The settings on record: Table 25. Format: cell-based, human. On the procedure:
as §1, §2, §3

Data set [2] concerns H460 cells. The data set is described as follows: Applicant's previous cancer cell proliferation inhibition test. Format: cell-based. Particulars: Homo sapiens, NCI-H460, single drug, applicant's previous test data.
For a further data set, the system named is A549 cells. The data set is described as follows: Cell cycle G2/M arrest, PI staining and flow cytometry. The data set is classed as cell-based. Particulars: 0.3-9 nM AST-3424 ± 5 µM Nutlin-3 (AST-3424 pre-treatment 2 hours), second experiment (Figure 10). On the procedure:
The remaining operations were similar to those of the above experiment, and the compound treatment was as follows:
• For H460 cell line, 1% DMSO, adding 5 µM Nutlin-3 for treatment for 22 hours, adding 0.03 nM AST-3424 for treatment for 24 hours, adding 0.1 nM AST-3424 for treatment for 24 hours, adding 0.3 nM AST-3424 for treatment for 24 hours, and adding 1 nM AST-3424 for treatment for 24 hours; • For A549 cell line, 1% DMSO, adding 5 µM Nutlin-3 for treatment for 22 hours, adding 0.3 nM AST-3424 for treatment for 24 hours, adding 1 nM AST-3424 for treatment for 24 hours, adding […] AST-3424 for treatment for 24 hours.
For A549 cell line, • Adding 0.3 nM AST-3424 for pre-treatment for 2 hours, and then adding 5 µM Nutlin-3 for co-treatment for 22 hours; • Adding 1 nM AST-3424 for pre-treatment for 2 hours, and then adding 5 µM Nutlin-3 for co-treatment for 22 hours; • Adding 3 nM AST-3424 for pre-treatment for 2 hours, and then adding 5 µM Nutlin-3 for co-treatment for 22 hours; • Adding 9 nM AST-3424 for pre-treatment for 2 hours, and then adding 5 µM Nutlin-3 for co-treatment for 22 hours.

The test system of data set [3] is PDX and CDX models with high expression of AKR1C3 enzyme. The settings on record: WO2023/046060, Examples 1-9; cited from earlier work.

For `C[C@H](OP(=O)(N1CC1)N1CC1)c1ccc([N+](=O)[O-])c(Oc2cccc(C(=O)N(C)C)c2)c1` [AST-3424], in the data set with H460 cells [1] (0.1 nM AST-3424, 5 µM Nutlin-3, 24 hours, combination: AST-3424 added first (Figure 9)), the “cell cycle (G0/G1, S, G2/M phases)” value is recorded as “does not significantly alter the cell cycle”. For the same compound, the “G2/M cell cycle arrest” value is “induces concentration-dependent G2/M cell cycle arrest” in the data set on H460 cells [1] (0.03-1 nM AST-3424 ± 5 µM Nutlin-3 (AST-3424 pre-treatment 2 hours), second experiment (Figure 10)) and “induces concentration-dependent G2/M cell cycle arrest” in the data set with A549 cells. Also, the IC50 in the data set with NCI-H460 cells stood at 430 pM; with NCI-H460 P53KO #1 cells (Homo sapiens, NCI-H460 P53KO # 1, normoxia, alone or + 3 µM AST-3021), 5450 pM; in the data set on H460 cells [2], 470 pM. The “Ratio, knockout / wild-type” value in the data set on NCI-H460 P53KO #1 cells (IC50 in NCI-H460 P53KO # 1 / NCI-H460) came to 12.67. Besides, in data set [3], the anti-tumor effects entry is recorded as “significant anti-tumor effects”. The tolerability entry in data set [3] is “well tolerated”.
